In patent publication US20030186423A1, “Amidase from variovorax” (Degussa AG, priority 2001, published 2003):

Key:
Format in all cases: biochemical, Variovorax paradoxus
D-amidase [1] = assay: Kinetic cleavage of racemic amino acid amides: enantioselectivity as a function of the conversion
Method: To evaluate the suitability for kinetic cleavage of racemic DL-Tle-NH2, the enantioselectivity was determined as a function of the conversion.
DL-Valin-, DL-leucin- and DL-phenylalaninamide were alos tested in this respect. For this, the enantioselectivity was determined as function of the conversion with partly purified enzyme from Variovorax paradoxus 19-3 after the 1st chromatography step.
(§1) The separation and quantitative determination of the enantiomers D- and L-tert-leucine were carried out by a “chiral derivatization” on the basis of o-phthaldialdehyde (OPA)/N-isobutyryl-L-cysteine or N-isobutyryl-D-cysteine (Brückner, H.; Wittner R. and Godel H. (1991), Fully automated high-performance liquid chromatographic separation of DL-amino acids derivatized with o-Phthaldialdehyde together with N-isopropyl-cysteine. Application to food samples. Anal. Biochem. 144, 204-206). The diastereomeric isoindole derivatives formed were separated on an RP-18 (reversed phase) column and detected by fluorescence. A two-buffer system of aqueous acetate buffer and an acetonitrile/water mixture was used as the mobile phase.

D-amidase [2] = assay: Enzyme test for amino acid amides and α-hydroxycarboxylic acid amides (HPLC or NH4+ determination); details: for Activity with respect to Tle-NH2 / Specific activity: substrate 40 mM; for Activity with respect to Tle-NH2: DL-Tle-NH2 = 1; for Specific activity: partly purified D-amidase after the 2nd chromatography step (0.56 U/mg), Pro-, Lac-, MHA-NH2 by NH4+ determination; for Rel. activity with respect to D and L: activity for the lower enantiomer set at 1
Method: For prolinamide, and the α-hydroxycarboxylic acid amides lactic acid amide (Lac-NH2) and 2-hydroxy-4-methylmercaptobutyric acid amid (MHA-NH2), the methionine-analogous α-hydroxycarboxylic acid amide, determination of the product with the previous HPLC analysis is not possible. For these substrates, the activity was determined with the aid of NH4^+ determination. […] All the substrates were employed in the enzyme test at 40 mM. In the 4th column, for further comparison the activity for the lower enantiomer has been set at 1 and a relative activity for the preferred enantiomer has been calculated therefrom.
(§2) In the conversion of tert-leucinamide (gen. acid amides) by the D-amidase, the formation of ammonia or ammonium ions and tert-leucine (gen. acid) in equimolar amounts occurs. […] The change in concentration of the components participating can be measured in an enzyme test, which comprises incubation of the following test batch for 10-60 minutes at 30° C.
(§3) The enzyme test was started by addition of the substrate and the reaction was stopped by heating at 95° C. for three minutes. The analysis of the reaction products was carried out for ammonium ions by enzymatic determination of ammonium by glutamate dehydrogenase (Bergmeyer, H.,U., and Beutler, H.-O. (1985) Ammonia. In: Methods of Enzymatic Analysis. VCH-Verlag, 3rd edition, vol. 8: 454-461, Weinheim) and for D- and L-tert-leucine by means of HPLC (Bruckner, H., Wittner R., and Godel H., (1991) Fully automated high-performance liquid chromatographic separation of DL-amino acids derivatized with o-phthaldialdehyde together with N-isopropyl-cysteine. Application to food samples. Anal. Biochem. 144(1): 204-206). Batches to which no substrate were added served as controls.
as §1

D-amidase [3] = assay: Enzyme test for acid amides, activity by determination of ammonium ions with glutamate dehydrogenase; details: for Activity with respect to Tle-NH2: DL-Tle-NH2 = 1; for Relative act.: partly purified D-amidase after the 2nd chromatography step (0.51 U/mg)
Method: The activity was measured by determination of the ammonium ions with glutamate dehydrogenase (Bergmeyer, H. U., and Beutler, H.-O. (1985), Ammonia. In: Methods of Enzymatic Analysis. VCH-Verlag, 3rd edition, vol. 8: 454-461, Weinheim). […] The substrates were employed in the enzyme test at 40 mM, except for succinic acid diamide and adipic acid diamide, each at 10 mM, and benzylamide at 20 mM. Since the activities were determined only at in each case one substrate concentration, relative activities are stated.
as §2, §3
The enzyme glutamate dehydrogenase (GluDH; E.C.1.4.1.3) converts 2-oxoglutarate into L-glutamate, ammonium ions being consumed and NADH being oxidized to NAD+(Bergmeyer, H.,U. and Beutler, H.-O. (1985), Ammonia. In: Methods of Enzymatic Analysis. VCH-Verlag, 3rd edition, vol. 8: 454-461, Weinheim). The amount of NADH consumed during the reaction is equivalent to the amount of ammonium ions. The change in the concentration of NADH is the measurement parameter and can be determined spectrophotometrically at a wavelength of 340 nm.
The test components were pipetted into cells of plastic (1.5 ml semimicro disposable cells, Brand) and mixed and the extinction at 340 nm was determined after 5 min. 10 μl GluDH were then added, and after the reaction had gone to completion, as a rule after 30 min, the extinction was measured again.

[4] = conversion 4%, partly purified enzyme after the 1st chromatography step
[5] = conversion 51%, partly purified enzyme after the 1st chromatography step

Row | SMILES | Activity with respect to Tle-NH2 (D-amidase [2]) | Specific activity (D-amidase [2]) [U/mg] | Rel. activity with respect to D and L (D-amidase [2]) | also measured
1 | CC(C)C[C@H](N)C(N)=O (racemic) [DL-Leu-NH2] |  |  |  | E value (D-amidase [1]; conversion 4%): 470; ee D-Val (D-amidase [1]; [4]): 99.6%; E value (D-amidase [1]; conversion 18%): 130; ee D-Val (D-amidase [1]; conversion 18%, partly purified enzyme after the 1st chromatography step): 98.1%; E value (D-amidase [1]; conversion 33%): 120; ee D-Val (D-amidase [1]; conversion 33%, partly purified enzyme after the 1st chromatography step): 97.3%; E value (D-amidase [1]; conversion 40%): 114; ee D-Val (D-amidase [1]; conversion 40%, partly purified enzyme after the 1st chromatography step): 96.7%; E value (D-amidase [1]; conversion 48%): 53; ee D-Val (D-amidase [1]; conversion 48%, partly purified enzyme after the 1st chromatography step): 90.8%; E value (D-amidase [1]; conversion 51%): 41; ee D-Val (D-amidase [1]; [5]): 86.7%
2 | CSCCC(O)C(N)=O (racemic) [DL-MHA-NH2, 2-hydroxy-4-methylmercaptobutyric acid amid] | 150 | 82 |  | 
3 | CSCCC(N)C(N)=O (racemic) [DL-Met-NH2] | 230 | 130 | 2.7 | 
4 | NC(=O)C(N)Cc1ccccc1 (racemic) [DL-Phe-NH2, DL-phenylalaninamide] |  |  |  | E value (D-amidase [1]; conversion 4%): 5.6; ee D-Val (D-amidase [1]; [4]): 68.8%; E value (D-amidase [1]; conversion 14%): 5.2; ee D-Val (D-amidase [1]; conversion 14%, partly purified enzyme after the 1st chromatography step): 65.1%; E value (D-amidase [1]; conversion 26%): 5.1; ee D-Val (D-amidase [1]; conversion 26%, partly purified enzyme after the 1st chromatography step): 61.5%; E value (D-amidase [1]; conversion 36%): 5.2; ee D-Val (D-amidase [1]; conversion 36%, partly purified enzyme after the 1st chromatography step): 58.3%; E value (D-amidase [1]; conversion 51%): 5.1; ee D-Val (D-amidase [1]; [5]): 50.9%; E value (average) (D-amidase [1]; racemic amide, calculated from Table 3): 5
5 | NC(=O)C(N)Cc1c[nH]c2ccccc12 (racemic) [DL-Trp-NH2] | 160 | 86 | 2.5 | 
6 | CC(N)=O [Acetamide] |  |  |  | Activity with respect to Tle-NH2 (D-amidase [3]; substrate 40 mM): 4.0; Relative act. (D-amidase [3]; substrate 40 mM): 2.1 U/mg
7 | CC(=O)CC(N)=O [Acetoacetamide] |  |  |  | Activity with respect to Tle-NH2 (D-amidase [3]; substrate 40 mM): 130; Relative act. (D-amidase [3]; substrate 40 mM): 58 U/mg
8 | NC(=O)CCCCC(N)=O [Adipic acid diamide] |  |  |  | Activity with respect to Tle-NH2 (D-amidase [3]; substrate 10 mM): 14; Relative act. (D-amidase [3]; substrate 10 mM): 7.0 U/mg
9 | CCCC(N)=O [Butyramide] |  |  |  | Activity with respect to Tle-NH2 (D-amidase [3]; substrate 40 mM): 37; Relative act. (D-amidase [3]; substrate 40 mM): 17 U/mg
10 | C[C@@H](N)C(N)=O [D-Ala-NH2] | 44 | 23 | 3.0 | 
11 | CC(O)C(N)=O [D-Lac-NH2, lactic acid amide] | 59 | 29 | 1 | 
12 | CC(C)C[C@@H](N)C(N)=O [D-Leu-NH2] | 400 | 220 | 15 | 
13 | NC(=O)[C@H](N)Cc1ccccc1 [D-Phe-NH2] | 890 | 500 | 4.6 | 
14 | N[C@H](Cc1ccccc1)C(=O)O [D-Phe] |  |  |  | enantioselectivity (D-amidase [1]; range from 40 to 50% conversion, partly purified enzyme after the 1st chromatography step): ~55%
15 | NC(=O)[C@@H]1CCCN1 [D-Pro-NH2, prolinamide] | 24 | 12 | 1 | 
16 | CC(C)[C@@H](N)C(N)=O [D-Val-NH2] | 13 | 6.9 | 11 | 
17 | NC=O [Formamide] |  |  |  | Activity with respect to Tle-NH2 (D-amidase [3]; substrate 40 mM): 0.13; Relative act. (D-amidase [3]; substrate 40 mM): 0.061 U/mg

Row | SMILES | Activity with respect to Tle-NH2 (D-amidase [2]) | Specific activity (D-amidase [2]) [U/mg] | Rel. activity with respect to D and L (D-amidase [2]) | also measured
18 | CC(C)C(N)=O [Isobutyramide] |  |  |  | Activity with respect to Tle-NH2 (D-amidase [3]; substrate 40 mM): 33; Relative act. (D-amidase [3]; substrate 40 mM): 15 U/mg
19 | C[C@H](N)C(N)=O [L-Ala-NH2] | 15 | 7.7 | 1 | 
20 | CC[C@H](C)[C@H](N)C(N)=O [L-Ile-NH2] | 0.35 | 0.17 |  | 
21 | CC(O)C(N)=O [L-Lac-NH2, lactic acid amide] | 66 | 33 | 1.1 | 
22 | CC(C)C[C@H](N)C(N)=O [L-Leu-NH2] | 26 | 15 | 1 | 
23 | CSCC[C@H](N)C(N)=O [L-Met-NH2] | 86 | 48 | 1 | 
24 | NC(=O)[C@@H](N)Cc1ccccc1 [L-Phe-NH2] | 190 | 110 | 1 | 
25 | NC(=O)[C@@H]1CCCN1 [L-Pro-NH2, prolinamide] | 56 | 28 | 2.3 | 
26 | NC(=O)[C@@H](N)Cc1c[nH]c2ccccc12 [L-Trp-NH2] | 62 | 34 | 1 | 
27 | NC(=O)[C@@H](N)Cc1ccc(O)cc1 [L-Tyr-NH2] | 100 | 47 |  | 
28 | CC(C)[C@H](N)C(N)=O [L-Val-NH2] | 1.2 | 0.59 | 1 | 
29 | NC(=O)CC(N)=O [Malonic acid diamide] |  |  |  | Activity with respect to Tle-NH2 (D-amidase [3]; substrate 40 mM): 2.9; Relative act. (D-amidase [3]; substrate 40 mM): 1.5 U/mg
30 | NC(=O)c1cccnc1 [Nicotinamide] |  |  |  | Activity with respect to Tle-NH2 (D-amidase [3]; substrate 40 mM): 19; Relative act. (D-amidase [3]; substrate 40 mM): 8.5 U/mg
31 | CCC(N)=O [Propionamide] |  |  |  | Activity with respect to Tle-NH2 (D-amidase [3]; substrate 40 mM): 26; Relative act. (D-amidase [3]; substrate 40 mM): 12 U/mg
32 | NC(=O)CCC(N)=O [Succinic acid diamide] |  |  |  | Activity with respect to Tle-NH2 (D-amidase [3]; substrate 10 mM): 2.1; Relative act. (D-amidase [3]; substrate 10 mM): 1.1 U/mg
33 | CCCCC(N)=O [Valeric acid amide] |  |  |  | Activity with respect to Tle-NH2 (D-amidase [3]; substrate 40 mM): 36; Relative act. (D-amidase [3]; substrate 40 mM): 16 U/mg
